The experiment relates to 266295-075-R-J1-PDC spheroid viability. The experiment is described as follows: Anticancer human tumor 266295-075-R-J1-PDC patient-derived head and neck squamous carcinoma cell line growth inhibition [POLQ]. The note with it: spheroids with HUVEC and MSC; for viability, T/C: stronger effect = lower value. How it is done: Multicellular complex tumor spheroid response to Polymerase (POL) inhibitors (novobiocin, ART-558, RP6685) in combination with a variety of drugs and investigational agents in selected tumor cell lines
The POL inhibitors (novobiocin, ART-558, and RP6685) were evaluated both individually and in combination with standard of care and investigational anticancer small molecules within a complex spheroid model of solid tumors. . Complex spheroids include a stromal component modeled by human endothelial cells (HUVEC) and fibroblasts modeled by human mesenchymal stem cells (MSCs). The concentration ranges selected for each drug and investigational agent were based upon clinically achievable concentrations if the clinical Cmax of the agent was known.
Compounds. The drugs and investigational agents: novobiocin (NSC847541), ART-558 (NSC835418), RP-6685 (NSC848927), peposertib (NSC802822), ceralasertib (NSC780249), elimusertib (NSC800525), camonsertib (NSC841442), AZD-1390 (NSC803789), olaparib (NSC753686), talazoparib (NSC767125), rucaparib (NSC756644), sotorasib (NSC818433), MRTX-1133 (NSC836407), SN-38 (NSC673596), topotecan (NSC609699), epotoside (NSC141540), doxorubicin (NSC123127), gemcitabine (NSC613327), 5-fluorouracil (NSC19893), paclitaxel (NSC125973), vemurafenib (NSC761431), MSA-2 (NSC828583), SN-011 (NSC837082), adavosertib (NSC754352), prexasertib (NSC758257), carboplatin (NSC241240) and oxaliplatin (NSC266046), were obtained from the National Cancer Institute (NCI) Developmental Therapeutics Program Chemical Repository (21). The FDA-approved anticancer drug set is available from the Developmental Therapeutics Program at https://dtp.cancer.gov/organization/dscb/obtaining/. […] The stock solutions were prepared in dimethyl sulfoxide (DMSO, Sigma-Aldrich, St. Louis, MO, cat. D2650), except for the platinum compounds which were prepared in saline (Quality Biological, Gaithersburg, MD, cat. 114-055-101), at 800-fold the tested concentration and stored at -70 degrees C prior to their use. All drugs and investigational agents were tested over a range starting from a high concentration at or near the clinical Cmax and decreasing in half-log increments. If the clinical Cmax for an agent had not been determined, the highest concentration tested was 10 microM, except for SN-38, which was tested at a high concentration of 1 microM.
Cell Culture. All cells were maintained in an incubator at 37 degrees C and 5% CO2 with 95% humidity. The PDC lines were cultured according to standard operating procedures established by the NCI PDMR (https://pdmr.cancer.gov). Table 3 of the manuscript, lists the cell lines along with the number of the three cell types plated to form the mct-spheroids and media for tumor cell growth. After thawing, all PDC lines, except 997537-175-T-J1-PDC and 415267-285-R-J2-PDC, were cultured in Matrigel-coated flasks prepared with a working solution of 1X Ham's F-12 nutrient mix, without supplementation (Thermo Fisher Scientific, cat. 11765054), 100 U/mL penicillin-streptomycin (Thermo Fisher Scientific, cat. 15140122), and 2.5% Matrigel (Corning Inc., Corning, NY, cat. 354248) for the first three passages. The two PDC lines 997537-175-T-J1-PDC and 415267-285-R-J2-PDC were cultured on uncoated flasks. The 857933-349-R-J2-PDC line was cultured in 6C/Colon 1B media containing advanced DMEM/F-12 (Thermo Fisher Scientific, cat. 12634028), 10 mM HEPES (Thermo Fisher Scientific, cat. 15630080), 1X GlutaMAX supplement (Thermo Fisher Scientific, cat. 35050061), 0.1 mg/mL primocin (InvivoGen, San Diego, CA, cat. ant-pm-2), 10% defined fetal bovine serum, heat inactivated (HyClone Laboratories Inc., Logan, UT, cat. SH30070.03HI), 50% L-WRN conditioned media (ATCC, cat. CRL-3276), 1.25 mM N-Acetyl-L-cysteine (Sigma-Aldrich, cat. A9165), 10 mM nicotinamide (Sigma-Aldrich, cat. N0636), 1X B-27 supplement (Thermo Fisher Scientific, cat. 17504044), 1X N-2 supplement (Thermo Fisher Scientific, cat. […]

[1] abbreviates: compound alone, run of 11/06/2023.

Where “and” joins values, the source holds several entries; their conditions need not be identical. Equal values may be shown once.
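Further: spheroids exposed to compounds for seven days before readout.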

`C#Cc1c(F)ccc2cc(O)cc(-c3ncc4c(N5CC6CCC(C5)N6)nc(OCC56CCCN5CC(F)C6)nc4c3F)c12` (stereo not drawn): the viability, T/C reads like this: (compound 0.0316 µM) 88.8% and 94.8% and 100%; (compound 0.1 µM) 93.5% and 94.2% and 79.7%; (compound 0.316 µM) 81.2% and 69.6% and 68.8%; (compound 1 µM) 76.1% and 83.5% and 63.2%; (compound 3.16 µM) 66% and 76.4% and 54.8%; (compound 10 µM) 61.1% and 56.7% and 58%. Further, the IC50 (curve of compound) is more than 10 µM.
For the compound `CC1COCCN1c1cc(C2(O)CC3CCC(C2)O3)c2cnn(-c3ccn[nH]3)c2n1` (stereo not drawn), the viability, T/C was 74.1% and 100% and 73.6% (compound 0.0316 µM); 84.5% and 71.6% and 81% (compound 0.1 µM); 62.8% and 65.5% and 67.8% (compound 0.316 µM); 43.3% and 50.5% and 46.8% (compound 1 µM); 40.4% and 43.8% and 42.7% (compound 3.16 µM); 27.9% and 29.2% and 30.2% (compound 10 µM). Further, under “curve of compound”, the IC50 was 0.708 µM and 0.992 µM and 0.944 µM.
On to `CCc1cc2c(N3CCc4c(cc(Cn5ccnc5)cc4-c4cn(C)nc4C(F)(F)F)C3=O)cc(C)nc2c(OC)n1`, for which the viability, T/C was 98.5% and 103% and 90.3% (compound 0.0316 µM); 95.8% and 103% and 98.5% (compound 0.1 µM); 91.9% and 89.5% and 109% (compound 0.316 µM); 120% and 97% and 110% (compound 1 µM); 123% and 113% and 127% (compound 3.16 µM); 128% (2×) and 130% (compound 10 µM). Besides, the IC50 (curve of compound) is more than 10 µM.
Turning to `CCc1cc2c(N3CCc4c(cc(Cn5ccnc5)cc4-c4cn(C)nc4C(F)(F)F)C3=O)ccnc2c(OC)n1`, the viability, T/C runs as follows: (compound 0.0316 µM) 90% and 97.3% and 94%; (compound 0.1 µM) 86.8% and 96.2% and 103%; (compound 0.316 µM) 93.4% and 103% and 122%; (compound 1 µM) 106% (2×) and 117%; (compound 3.16 µM) 125% and 145% and 137%; (compound 10 µM) 126% and 117% and 140%. For the same compound, under “curve of compound”, the IC50 is more than 10 µM.
On to `COc1cc2cc(C(=O)CCC(=O)O)sc2cc1OC`, for which the viability, T/C is 96.8% and 81.4% and 99% (compound 0.0316 µM); 105% and 89.9% and 92.6% (compound 0.1 µM); 108% and 91.4% and 97.7% (compound 0.316 µM); 101% (2×) and 99.7% (compound 1 µM); 87.9% and 109% and 115% (compound 3.16 µM); 93.1% and 105% and 85.8% (compound 10 µM). Also, the half-inhibitory concentration (IC50) (curve of compound) is more than 10 µM.
Regarding `Cc1cccc(N(C)C(=O)C2C(O)CCN2c2nc(C)cc(C(F)(F)F)c2C#N)c1` (stereo not drawn), the IC50 by setting is: (compound alone, run of 10/31/2023) more than 10 µM; under setting [1], more than 10 µM.
As to `Nc1ccc(C#CCN(C(=O)Cc2ncc(C(F)(F)F)cc2C(F)(F)F)c2ccc(F)cc2)nn1`, the viability, T/C is 102% [middle of 13 runs] (compound 0.316 µM), 95.5% [middle of 13 runs] (compound 3.16 µM) and 96.3% [middle of 13 runs] (compound 10 µM). Under setting [1], the 50% inhibitory concentration (IC50) was more than 10 µM.
As for `O=C(Nc1ccc(O)c(NS(=O)(=O)c2ccc(F)cc2)c1)c1ccc(-c2ccccc2)cc1`, the viability, T/C was 119% and 92.8% and 88.2% (compound 0.0316 µM); 112% and 97.5% and 96.2% (compound 0.1 µM); 102% and 96.6% and 99.1% (compound 0.316 µM); 123% and 103% and 118% (compound 1 µM); 153% and 112% and 122% (compound 3.16 µM); 114% and 96.1% and 113% (compound 10 µM). Besides, where the note is “curve of compound”, the IC50 was more than 10 µM.

These data come from PubChem BioAssay AID1963853 (Molecular Pharmacology Branch, DTP, NCI, 2024).
